Assay results reported in patent publication US9365522B2, “Pyrazole amide derivative” (AMGEN INC., priority 2015, dated 2016).

The compounds below were run against T1, human RORγ-LBD (Homo sapiens, UniProt P51449) (assay: ROR gamma coactivator peptide recruitment Alphascreen assay (RORγ-LBD binding to GRIP1 coactivator peptide)). Conditions: 5 nM human RORγ-LBD, 30 nM 7-β-hydroxycholesterol, 50 nM biotinylated GRIP1 coactivator peptide, overnight incubation at room temperature; read-out: result (pIC50, RORγ coactivator peptide recruitment Alphascreen assay) (converted).
T1 construct: made in house; host or cells: E. coli (BL-21)
T1 sequence (P51449 262-518): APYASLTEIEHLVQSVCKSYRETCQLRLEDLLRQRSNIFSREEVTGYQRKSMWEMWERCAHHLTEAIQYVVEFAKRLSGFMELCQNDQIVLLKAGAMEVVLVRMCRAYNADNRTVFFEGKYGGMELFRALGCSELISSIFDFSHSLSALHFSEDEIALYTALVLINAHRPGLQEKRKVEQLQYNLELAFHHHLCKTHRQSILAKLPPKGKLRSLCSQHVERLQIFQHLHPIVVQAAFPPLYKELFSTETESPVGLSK
Type: biochemical
From the text: Alphascreen™ is a bead-based amplified homogenous luminescent proximity assay that can be used for measuring the effect of compounds on protein-protein interactions. When biological interactions bring donor and acceptor beads into close proximity, reactive oxygen, generated upon laser excitation of the donor beads, initiates a luminescence/fluorescence cascade in the acceptor beads that leads to a highly amplified signal that can be measured as light in the 520-620 nm range. When the acceptor and donor beads are not in proximity, the reactive oxygen decays and only a very low background signal is generated.
An in vitro assay to assess inhibition of RORγ binding to the coactivator GRIP1 was established using Alphascreen™ technology. The interaction between nuclear receptors (NR) and coactivator proteins is a key step in signal transduction from the receptor to the transcriptional machinery and can be measured in vitro using only the ligand binding domain of the nuclear receptor and a peptide containing a coactivator protein LXXLL nuclear receptor binding motif
For the RORγ construct used in the coactivator recruitment assay, nucleotides corresponding to the ligand binding domain (LBD) of wild type human RORγ (amino acids 262-518 of Genbank Accession No. NM_005060.3) were cloned into the pET24 expression vector (Novagen), downstream of in-frame N-terminal 6×His and Flag tag sequences. Recombinant 6×His:Flag-tagged human RORγ-LBD protein was expressed in E. coli (BL-21) and purified by affinity chromatography on a nickel Sepharose column, followed by anion exchange chromatography.
A 4× assay mixture of 6×His:Flag-tagged human RORγ-LBD with the agonist ligand 7-β-hydroxycholesterol was prepared in assay buffer (50 mM HEPES pH 7.4, BSA 0.05%, 150 mM NaCl, 5 mM MgCl2, 1 mM DTT, 0.01% Tween-20). For control wells a 4× mixture of 6×His:Flag-tagged human ROR gamma LBD alone was also prepared.
A 4× stock of biotinylated coactivator peptide containing the LXXLL motif from GRIP1 (Biotin-[…]) was prepared in assay buffer.
A 4×detection mixture of nickel chelate Alphascreen™ acceptor beads (PerkinElmer) and streptavidin Alphascreen™ donor beads (PerkinElmer) was prepared in assay buffer.
Compounds to be tested were arranged in a pre-dose 384-well mother plate serially diluted 1 in 2 over 22 columns, in 100% DMSO, at 40× the final test concentration, from a high concentration of 4 mM. DMSO with no compound was placed in control columns. The compounds were robotically dispensed directly into assay plates containing assay buffer to a 4× final test concentration.
Following compound addition, the 6×His:Flag-tagged human RORγ-LBD plus 7-β-hydroxycholesterol assay mixture, biotinylated coactivator peptide and detection mixture were added. Final assay conditions were 5 nM 6×His:Flag-tagged human RORγ-LBD, 30 nM 7-β-hydroxycholesterol, 50 nM biotinylated coactivator peptide, 2.5 ug/ml nickel acceptor beads and 10 ug/ml streptavidin donor beads. The final concentration of DMSO in the assay was 2.5%.
After overnight incubation at room temperature plates were read on and Envision™ plate reader (PerkinElmer).
Data was plotted and pIC50 values were calculated using the Genedata Screener™ data analysis suite (Genedata).

Row | SMILES | IC50 [nM]
1 | C[C@@H]1C[C@](C)(C(=O)O)CC[C@H]1n1ncc(C(=O)N(CC(=O)c2c(Cl)cncc2Cl)CC(C)(C)C)c1C(F)(F)F (stereo in doubt) [Example 855, (1R,3R,4R)-4-(4-((2-(3,5-dichloro-4-pyridinyl)-2-oxoethyl)(2,2-dimethylpropyl)carbamoyl)-5-(trifluoromethyl)-1H-pyrazol-1-yl)-1,3-dimethylcyclohexanecarboxylic acid] | 5.75
2 | CC1C[C@@H](n2ncc(C(=O)N(CC(=O)c3c(Cl)cncc3Cl)CC(C)(C)C)c2C(F)(F)F)CC[C@]1(C)C(=O)O (stereo in doubt) [Example 861, (1S,2S,4S)-4-(4-((2-(3,5-dichloro-4-pyridinyl)-2-oxoethyl)(2,2-dimethylpropyl)carbamoyl)-5-(trifluoromethyl)-1H-pyrazol-1-yl)-1,2-dimethylcyclohexanecarboxylic acid] | 4.79
3 | C[C@H]1C[C@@H](n2ncc(C(=O)N(CC(=O)c3c(Cl)cncc3Cl)CC(C)(C)C(F)(F)F)c2C(F)(F)F)CC[C@@H]1C(=O)O (stereo in doubt) [Example 864, (1S,2S,4S)-4-(4-((2-(3,5-dichloro-4-pyridinyl)-2-oxoethyl)(3,3,3-trifluoro-2,2-dimethylpropyl)carbamoyl)-5-(trifluoromethyl)-1H-pyrazol-1-yl)-2-methylcyclohexanecarboxylic acid] | 2.95
4 | O=C(c1cnn([C@H]2CC[C@H](C(=O)O)CC2)c1C(F)(F)F)N(CCc1ccccc1Cl)Cc1ccc(Cl)cc1 [Example 500, trans-4-(4-((4-chlorobenzyl)(2-(2-chlorophenyl)ethyl)carbamoyl)-5-(trifluoromethyl)-1H-pyrazol-1-yl)cyclohexanecarboxylic acid] | 15.1
5 | O=C(c1cnn([C@H]2CC[C@H](C(=O)O)CC2)c1C(F)(F)F)N(CCc1c(Cl)cccc1Cl)Cc1ccc(Cl)cc1 [Example 501, trans-4-(4-((4-chlorobenzyl)(2-(2,6-dichlorophenyl)ethyl)carbamoyl)-5-(trifluoromethyl)-1H-pyrazol-1-yl)cyclohexanecarboxylic acid] | 3.8
6 | O=C(c1cnn([C@H]2CC[C@H](C(=O)O)CC2)c1C(F)(F)F)N(CCc1ccccc1)Cc1ccc(Cl)cc1 [Example 502, trans-4-(4-((4-chlorobenzyl)(2-phenylethyl)carbamoyl)-5-(trifluoromethyl)-1H-pyrazol-1-yl)cyclohexanecarboxylic acid] | 275
7 | O=C(c1cnn([C@H]2CC[C@H](C(=O)O)CC2)c1C(F)(F)F)N(CCc1ccc2cc[nH]c2c1)Cc1ccc(Cl)cc1 [Example 503, trans-4-(4-((4-chlorobenzyl)(2-(1H-indol-6-yl)ethyl)carbamoyl)-5-(trifluoromethyl)-1H-pyrazol-1-yl)cyclohexanecarboxylic acid] | 355
8 | O=C(c1cnn([C@H]2CC[C@H](C(=O)O)CC2)c1C(F)(F)F)N(CCc1ccc(Cl)cc1Cl)Cc1ccc(Cl)cc1 [Example 504, trans-4-(4-((4-chlorobenzyl)(2-(2,4-dichlorophenyl)ethyl)carbamoyl)-5-(trifluoromethyl)-1H-pyrazol-1-yl)cyclohexanecarboxylic acid] | 6.92
9 | Cc1ccc(CCN(Cc2ccc(Cl)cc2)C(=O)c2cnn([C@H]3CC[C@H](C(=O)O)CC3)c2C(F)(F)F)c(C)c1 [Example 505, trans-4-(4-((4-chlorobenzyl)(2-(2,4-dimethylphenyl)ethyl)carbamoyl)-5-(trifluoromethyl)-1H-pyrazol-1-yl)cyclohexanecarboxylic acid] | 5.89
10 | O=C(c1cnn([C@H]2CC[C@H](C(=O)O)CC2)c1C(F)(F)F)N(CCc1cccc2[nH]ccc12)Cc1ccc(Cl)cc1 [Example 506, trans-4-(4-((4-chlorobenzyl)(2-(1H-indol-4-yl)ethyl)carbamoyl)-5-(trifluoromethyl)-1H-pyrazol-1-yl)cyclohexanecarboxylic acid] | 69.2
11 | O=C(c1cnn([C@H]2CC[C@H](C(=O)O)CC2)c1C(F)(F)F)N(CCc1c[nH]c2ccccc12)Cc1ccc(Cl)cc1 [Example 507, trans-4-(4-((4-chlorobenzyl)(2-(1H-indol-3-yl)ethyl)carbamoyl)-5-(trifluoromethyl)-1H-pyrazol-1-yl)cyclohexanecarboxylic acid] | 32.4
12 | O=C(c1cnn([C@H]2CC[C@H](C(=O)O)CC2)c1C(F)(F)F)N(CCc1cccc2cc[nH]c12)Cc1ccc(Cl)cc1 [Example 508, trans-4-(4-((4-chlorobenzyl)(2-(1H-indol-7-yl)ethyl)carbamoyl)-5-(trifluoromethyl)-1H-pyrazol-1-yl)cyclohexanecarboxylic acid] | 759
13 | Cc1ccccc1CCN(Cc1ccc(Cl)cc1)C(=O)c1cnn([C@H]2CC[C@H](C(=O)O)CC2)c1C(F)(F)F [Example 509, trans-4-(4-((4-chlorobenzyl)(2-(2-methylphenyl)ethyl)carbamoyl)-5-(trifluoromethyl)-1H-pyrazol-1-yl)cyclohexanecarboxylic acid] | 11.5
14 | Cc1cc(Cl)c(CCN(CC2CCCCC2)C(=O)c2cnn([C@H]3CC[C@H](C(=O)O)CC3)c2C(F)(F)F)c(Cl)c1 [Example 510, trans-4-(4-((cyclohexylmethyl)(2-(2,6-dichloro-4-methylphenyl)ethyl)carbamoyl)-5-(trifluoromethyl)-1H-pyrazol-1-yl)cyclohexanecarboxylic acid] | 1.78
15 | Cc1[nH]c2ccccc2c1CCN(Cc1ccc(Cl)cc1)C(=O)c1cnn([C@H]2CC[C@H](C(=O)O)CC2)c1C(F)(F)F [Example 513, trans-4-(4-((4-chlorobenzyl)(2-(2-methyl-1H-indol-3-yl)ethyl)carbamoyl)-5-(trifluoromethyl)-1H-pyrazol-1-yl)cyclohexanecarboxylic acid] | 33.1
16 | Cc1cc(Cl)c(CCN(CC2CCCCC2)C(=O)c2cnn([C@H]3CC[C@](C)(C(=O)O)CC3)c2C(F)(F)F)c(Cl)c1 [Example 514, trans-4-(4-((cyclohexylmethyl)(2-(2,6-dichloro-4-methylphenyl)ethyl)carbamoyl)-5-(trifluoromethyl)-1H-pyrazol-1-yl)-1-methylcyclohexanecarboxylic acid] | 1.91
17 | Cc1cc(Cl)c(CCN(CC(C)(C)C)C(=O)c2cnn([C@H]3CC[C@](C)(C(=O)O)CC3)c2C(F)(F)F)c(Cl)c1 [Example 515, trans-4-(4-((2-(2,6-dichloro-4-methylphenyl)ethyl)(2,2-dimethylpropyl)carbamoyl)-5-(trifluoromethyl)-1H-pyrazol-1-yl)-1-methylcyclohexanecarboxylic acid] | 4.68
18 | Cc1cc(Cl)c(C(=O)CN(CC(C)(C)C)C(=O)c2cnn([C@H]3CC[C@H](C(=O)O)CC3)c2C(F)(F)F)c(Cl)c1 [Example 517, trans-4-(4-((2-(2,6-dichloro-4-methylphenyl)-2-oxoethyl)(2,2-dimethylpropyl)carbamoyl)-5-(trifluoromethyl)-1H-pyrazol-1-yl)cyclohexanecarboxylic acid] | 25.1
19 | Cc1cc(Cl)c(C(=O)CN(CC2CCC3(CC2)CC3)C(=O)c2cnn([C@H]3CC[C@H](C(=O)O)CC3)c2C(F)(F)F)c(Cl)c1 [Example 518, trans-4-(4-((2-(2,6-dichloro-4-methylphenyl)-2-oxoethyl)(spiro[2.5]oct-6-ylmethyl)carbamoyl)-5-(trifluoromethyl)-1H-pyrazol-1-yl)cyclohexanecarboxylic acid] | 2.63
20 | Cc1cc(Cl)c(C(=O)CN(CC2(C)CCCCC2)C(=O)c2cnn([C@H]3CC[C@H](C(=O)O)CC3)c2C(F)(F)F)c(Cl)c1 [Example 519, trans-4-(4-((2-(2,6-dichloro-4-methylphenyl)-2-oxoethyl)((1-methylcyclohexyl)methyl)carbamoyl)-5-(trifluoromethyl)-1H-pyrazol-1-yl)cyclohexanecarboxylic acid] | 5.13
